Source: publication PMC6522510 (Nature Communications, 2019)
Read-outs that look alike come from different tables or passages of the source.

How the values were obtained:
Assay in all cases: Secondary dose-response HTS, Cell Titer Glo; call rule not given here
Type in all cases: cell-based, human
MOLM-13 = system: MOLM-13
MV4-11 = system: MV4-11
CHRF288-11 = system: CHRF288-11
CMK = settings: CMK
CMS = settings: for EC50: Homo sapiens
M07e = settings: for EC50: Homo sapiens, M-07e
ML2 = settings: for EC50: Homo sapiens
U937 = system: U937
[1] = Homo sapiens, secondary high-throughput screen, MV4-11, read-out: average effective concentration, MV4-11
[2] = Homo sapiens, HTS, secondary high-throughput screen, CHRF288-11, read-out: average effective concentration, CHRF288-11
[3] = HTS, secondary high-throughput screen, CMS, read-out: average effective concentration, CMS
[4] = secondary high-throughput screen, M07e, read-out: average effective concentration, M07e
[5] = secondary high-throughput screen, ML-2, read-out: average effective concentration, ML-2
[6] = Homo sapiens, U-937, secondary high-throughput screen, U937, read-out: average effective concentration, U937
[7] = secondary high-throughput screen, MOLM-13
[8] = secondary high-throughput screen, MV4-11
[9] = secondary high-throughput screen, CHRF288-11
[10] = secondary high-throughput screen
[11] = secondary high-throughput screen, CMS
[12] = secondary high-throughput screen, M07e
[13] = secondary high-throughput screen, ML-2
[14] = secondary high-throughput screen, U937
[15] = Homo sapiens, secondary high-throughput screen, MOLM-13, read-out: average effective concentration, MOLM-13
[16] = Homo sapiens, read-out: average effective concentration, CMK
[17] = HTS, read-out: average effective concentration, CMS
[18] = secondary high-throughput screen, MOLM-13, read-out: average effective concentration, MOLM-13
[19] = Homo sapiens, secondary high-throughput screen, read-out: average effective concentration, CMK
[20] = secondary high-throughput screen, […], read-out: average effective concentration, M07e

EC50 (MV4-11; [1]) | EC50 (U937; [6]) | EC50 (MOLM-13; [15]) | SMILES | EC50 (CHRF288-11; [2]) | EC50 (CMS; [3]) | EC50 (M07e; [4]) | EC50 (ML2; [5]) | average effective concentration, MOLM-13 (MOLM-13; [7]) | average effective concentration, MV4-11 (MV4-11; [8]) | average effective concentration, CHRF288-11 (CHRF288-11; [9]) | average effective concentration, CMK (CMK; [10]) | average effective concentration, CMS (CMS; [11]) | average effective concentration, M07e (M07e; [12]) | average effective concentration, ML-2 (ML2; [13]) | average effective concentration, U937 (U937; [14]) | EC50 (CMK; [19]) | other results
– | – | – | COc1cccc(-c2cc(=O)c3ccccc3o2)c1N [PD 98059] | – | – | – | – | Inactive | Inactive | Inactive | Inactive | Inactive | Inactive | Inactive | Inactive | – | –
– | – | – | Cc1cc(I)ccc1Nc1c(C(=O)NOCC2CC2)cc(F)c(F)c1F [PD 198306] | – | – | – | – | Inactive | Inactive | Inactive | Inactive | Inactive | Inactive | Inactive | Inactive | – | –
50 nM | 100 nM | 18 nM | Cn1cc(-c2[nH]c3cc(NC(=O)[C@H](N)C4CCCCC4)cc4c3c2C=NNC4=O)cn1 [PF-477736] | 1200 nM | – | 240 nM | 28 nM | – | – | – | – | – | – | – | – | – | EC50 (CMK; [16]): 220 nM; EC50 (CMS; [17]): 6.2 µM
– | – | – | CN(C)C1CCN(C(=O)c2ccc(NC(=O)Nc3ccc(-c4nc(N5CCOCC5)nc(N5CCOCC5)n4)cc3)cc2)CC1 [PF-05212384] | – | – | – | – | – | – | Inactive | – | Inactive | Inactive | Inactive | – | – | EC50 (MOLM-13; [18]): 190 nM; EC50 (MV4-11; secondary high-throughput screen, MV4-11, read-out: average effective concentration, MV4-11): 47 nM; EC50 (CMK; secondary high-throughput screen, read-out: average effective concentration, CMK): 7700 nM; EC50 (U937; secondary high-throughput screen, U937, read-out: average effective concentration, U937): 24 nM
– | – | – | Cc1ccc(C(=O)Nc2ccc(CN3CCN(C)CC3)c(C(F)(F)F)c2)cc1C#Cc1cnc2cccnn12 [PONATINIB] | – | – | – | – | – | – | – | – | – | – | – | – | – | EC50 (MOLM-13; Homo sapiens, MOLM-13, read-out: average effective concentration, MOLM-13): 17 nM; EC50 (MV4-11; Homo sapiens, MV4-11, read-out: average effective concentration, MV4-11): 11 nM; EC50 (CHRF288-11; Homo sapiens, HTS, read-out: average effective concentration, CHRF288-11): 1000 nM; EC50 (CHRF288-11; read-out: average effective concentration, CHRF288-11): 980 nM; EC50 (CMK; [16]): 1600 nM; EC50 (CMS; [17]): 6.7 µM; EC50 (M07e; read-out: average effective concentration, M07e): 7000 nM; EC50 (ML2; ML-2, read-out: average effective concentration, ML-2): 5300 nM; EC50 (U937; Homo sapiens, U-937, read-out: average effective concentration, U937): 2500 nM
– | – | – | O=C(Nc1cc(Cl)cc2c1[nH]c1cnccc12)c1cccnc1 [PS-1145] | – | – | – | – | Inactive | Inactive | Inactive | Inactive | Inactive | Inactive | Inactive | Inactive | – | –
– | – | – | O=C1NC(=O)/C(=C/c2cccc(C(F)(F)F)c2)S1 [SMI-4A] | – | – | – | – | Inactive | Inactive | Inactive | Inactive | Inactive | Inactive | Inactive | Inactive | – | –
– | – | – | O=C([O-])Cc1ccccc1.[Na+] [SODIUM PHENYLACETATE] | – | – | – | – | – | Inactive | Inactive | Inactive | Inactive | – | Inactive | Inactive | – | EC50 (MOLM-13; [18]): 2100 nM; average effective concentration, M07e (M07e; secondary high-throughput screen, […]): Inactive
34 nM | 270 nM | 19 nM | CCN(CC)CCNC(=O)c1c(C)[nH]c(/C=C2\C(=O)Nc3ccc(F)cc32)c1C [SUNITINIB] | 490 nM | > 10 µM | 460 nM | 270 nM | – | – | – | – | – | – | – | – | 330 nM | –
3000 nM | > 10000 nM | 4900 nM | Nc1nc2nc[nH]c2c(=S)[nH]1 [THIOGUANINE] | 3500 nM | > 10 µM | > 10000 nM | 6300 nM | – | – | – | – | – | – | – | – | 3800 nM | –
170 nM | 690 nM | 120 nM | CC[C@@]1(O)C(=O)OCc2c1cc1n(c2=O)Cc2cc3c(CN(C)C)c(O)ccc3nc2-1 [TOPOTECAN] | 500 nM | 7.2 µM | 1700 nM | 250 nM | – | – | – | – | – | – | – | – | 470 nM | –
1800 nM | > 10000 nM | 170 nM | COc1cc(NCc2ccc3nc(N)nc(N)c3c2C)cc(OC)c1OC [TRIMETREXATE] | 7600 nM | 1.7 µM | 10000 nM | 2900 nM | – | – | – | – | – | – | – | – | 4200 nM | –
– | – | – | COc1cc2c(NC3CCN(C)CC3)nc(N3CCCN(C)CC3)nc2cc1OCCCN(C)C [UNC0224] | – | – | – | – | Inactive | Inactive | Inactive | Inactive | Inactive | Inactive | Inactive | Inactive | – | –
– | – | – | COc1cc2c(NC3CCN(C)CC3)nc(N3CCCN(C)CC3)nc2cc1OCCOCCN(C)C [UNC0321] | – | – | – | – | Inactive | Inactive | Inactive | Inactive | Inactive | Inactive | Inactive | Inactive | – | –
20 nM | 35 nM | 43 nM | CC[C@]1(O)C[C@H]2CN(CCc3c([nH]c4ccccc34)[C@@](C(=O)OC)(c3cc4c(cc3OC)N(C=O)[C@H]3[C@@](O)(C(=O)OC)[C@H](OC(C)=O)[C@]5(CC)C=CCN6CC[C@]43[C@@H]65)C2)C1 [VINCRISTINE] | 390 nM | 0.23 µM | 1 nM | 8 nM | – | – | – | – | – | – | – | – | > 10000 nM | –
– | – | – | CCn1c(=O)c(-c2cc[nH]n2)cc2c(C)nc(N)nc21 [Voxtalisib] | – | – | – | – | Inactive | Inactive | Inactive | Inactive | Inactive | Inactive | Inactive | Inactive | – | –

SMILES | EC50 (MV4-11; [1]) | EC50 (U937; [6]) | EC50 (MOLM-13; [15]) | EC50 (CHRF288-11; [2]) | EC50 (CMS; [3]) | EC50 (M07e; [4]) | EC50 (ML2; [5]) | average effective concentration, MOLM-13 (MOLM-13; [7]) | average effective concentration, MV4-11 (MV4-11; [8]) | average effective concentration, CHRF288-11 (CHRF288-11; [9]) | average effective concentration, CMK (CMK; [10]) | average effective concentration, CMS (CMS; [11]) | average effective concentration, M07e (M07e; [12]) | average effective concentration, ML-2 (ML2; [13]) | average effective concentration, U937 (U937; [14]) | EC50 (CMK; [19]) | other results
C[C@@H]1O[C@@H](O[C@H]2C[C@@H](O)[C@]3(CO)[C@H]4[C@H](O)C[C@]5(C)[C@@H](C6=CC(=O)OC6)CC[C@]5(O)[C@@H]4CC[C@]3(O)C2)[C@H](O)[C@H](O)[C@H]1O [Ouabain, reference compound] | 38 nM | 41 nM | – | 43 nM | 0.046 µM | 64 nM | 31 nM | – | – | – | – | – | – | – | – | – | EC50 (MOLM-13; Homo sapiens, MOLM-13, secondary HTS, 72 h, average of triplicate, read-out: EC50 MOLM-13): 30 nM; EC50 (MV4-11; Homo sapiens, MV4-11, secondary HTS, 72 h, average of triplicate, read-out: EC50 MV4-11): 40 nM; EC50 (CHRF288-11; Homo sapiens, secondary HTS, 72 h, average of triplicate, read-out: EC50 CHRF288-11): 40 nM; EC50 (CMK; Homo sapiens, secondary HTS, 72 h, average of triplicate, read-out: EC50 CMK): 180 nM; EC50 (CMS; secondary HTS, 72 h, average of triplicate, read-out: EC50 CMS): 0.05 µM; EC50 (M07e; secondary HTS, 72 h, average of triplicate, read-out: EC50 M07e): 60 nM; EC50 (ML2; ML-2, secondary HTS, 72 h, average of triplicate, read-out: EC50 ML2): 30 nM; EC50 (U937; Homo sapiens, U-937, secondary HTS, 72 h, average of triplicate, read-out: EC50 U937): 40 nM
COC(=O)[C@]1(C)CC[C@]2(C)CC[C@]3(C)C4=CC=C5C(=CC(=O)C(O)=C5C)[C@]4(C)CC[C@@]3(C)[C@@H]2C1 [PRISTIMERIN] | – | 800 nM | – | 240 nM | 1.5 µM | – | 120 nM | Inactive | Inactive | – | – | – | – | – | – | 240 nM | EC50 (M07e; [20]): 4600 nM
COc1cc2c(NC3CCN(C(C)C)CC3)nc(C3CCCCC3)nc2cc1OCCCN1CCCC1 [UNC0638 HYDRATE] | – | 4500 nM | > 10000 nM | > 10000 nM | 6 µM | – | > 10000 nM | – | Inactive | – | Inactive | – | – | – | – | – | EC50 (M07e; [20]): 5000 nM
